Here are results for 10 compounds from article PMC6271638, “Synthesis of New 1,2,3-Triazol-4-yl-quinazoline Nucleoside and Acyclonucleoside Analogues” (Molecules, 2014).

One series concerns Huh 5.2 cells. As to the kind of experiment: Cytotoxicity (50% extinction of cells) in the anti-HCV replicon assay. The class given is cell-based. The settings on record: 3-day cell culture assay, read-out: CC50, concentration of compound required for 50% extinction of Huh 5.2 cells. On the technique in general: In antiviral work, replicon cells carry a viral genome segment that copies itself.

The subject of series [1] is HCV replicon (genotype 1b, CON1). The series is described as follows: Anti-HCV activity, 3-day cell culture assay in HCV-replicon-containing cell line AVA5. To be noted: AVA5 cells (genotype 1b, CON1), 3-day assay, read-out: IC50, concentration of compound achieving 50% inhibition of the replicon system. It counts as cell-based, hepatitis C virus. Here is the method:
Antiviral activity was assessed in a 3-day cell culture assay using the HCV-replicon-containing cell line, AVA5 (genotype 1b, CON1) (provided to GUMC by Apath, Inc., Brooklyn, NY, USA) as previously described.

The nature of series [2]: Cytotoxicity (50% extinction of cells) in the anti-HCV replicon assay. It counts as cell-based. To be noted: human; Huh 5.2 cells; 3-day cell culture assay; read-out: CC50, concentration of compound required for 50% extinction of Huh 5.2 cells.

pIC50: −log10 of the molar value. Where two headings read alike, the source gives them in different places.

Regarding “3-((1-(β-D-Ribofuranos-1-yl)-1,2,3-triazol-4-yl)methyl)-2-methylquinazolin-4-one [Compound 7d]”, the CC50 in the series on Huh 5.2 cells is at least 100 µM. The pIC50 in series [1] is below 5.00.

As to “3-((1-(β-D-Ribofuranos-1-yl)-1,2,3-triazol-4-yl)methyl)quinazolin-4-one [Compound 7g]”, the CC50 in the series with Huh 5.2 cells was at least 100 µM. For the same compound, the pIC50 in series [1] was below 5.00.

As to “4-((1-(β-D-Ribofuranos-1-yl)-1,2,3-triazol-4-yl)methoxy)-2-phenylquinazoline [Compound 7a]”, in the series with Huh 5.2 cells, the CC50 is at least 50 µM. Moreover, the pIC50 in series [1] is below 5.00.

Regarding `C[C@@]1(O)[C@H](O)[C@@H](CO)O[C@H]1n1ccc(N)nc1=O` [Compound 2CmeCyt, reference compound], the CC50 in the series on Huh 5.2 cells was above 300 µM. Also, in series [1], the pIC50 was 5.82.

In the case of `OCCOCn1cc(COc2nc(-c3ccccc3)nc3ccccc23)nn1` [Compound 7b, 2-((4-((2-Phenylquinazolin-4-yloxy)methyl)-1,2,3-triazol-1-yl)methoxy)etanol], the CC50 at 3 day in series [2] is at least 100 µM. Besides, the pIC50 in series [1] (Hepatitis C virus, 72 h) is below 5.00.

Turning to `OCCCCn1cc(COc2nc(-c3ccccc3)nc3ccccc23)nn1` [Compound 7c, 4-(4-((2-Phenylquinazolin-4-yloxy)methyl)-1,2,3-triazol-1-yl)butan-1-ol], the CC50 at 3 day in series [2] was at least 50 µM. For the same compound, the pIC50 in series [1] (Hepatitis C virus, 72 h) is below 5.00.

Turning to `Cc1nc2ccccc2c(=O)n1Cc1cn(COCCO)nn1` [Compound 7e, 2-((4-((2-Methyl-4-oxoquinazolin-3-yl)methyl)-1,2,3-triazol-1-yl)methoxy)ethanol], the CC50 at 3 day in series [2] was at least 50 µM. Further, in series [1] (Hepatitis C virus, 72 h), the pIC50 is below 5.00.

Take `Cc1nc2ccccc2c(=O)n1Cc1cn(CCCCO)nn1` [Compound 7f, 4-(4-((2-Methyl-4-oxoquinazolin-3-yl)methyl)-1,2,3-triazol-1-yl)butan-1-ol]: the CC50 at 3 day in series [2] is at least 50 µM. In addition, the pIC50 in series [1] (Hepatitis C virus, 72 h) is below 5.00.

Regarding `O=c1c2ccccc2ncn1Cc1cn(COCCO)nn1` [Compound 7h, 2-((4-((4-Oxoquinazolin-3-yl)methyl)-1,2,3-triazol-1-yl)methoxy)ethanol], in series [2], the CC50 at 3 day was at least 50 µM. Moreover, the pIC50 in series [1] (Hepatitis C virus, 72 h) is below 5.00.

As for `O=c1c2ccccc2ncn1Cc1cn(CCCCO)nn1` [Compound 7i, 4-(4-((4-Oxoquinazolin-3-yl)methyl)-1H-1,2,3-triazol-1-yl)butan-1-ol], the CC50 at 3 day in series [2] was at least 50 µM. In addition, the pIC50 in series [1] (Hepatitis C virus, 72 h) is below 5.00.
